# Experimental data taken from US20170209415A1, “USE OF (+)-1-(3,4-DICHLOROPHENYL)-3-AZABICYCLO[3.1.0]HEXANE TO TREAT ADDICTIVE DISORDERS INCLUDING NICOTINE ADDICTION” (priority 2012, published 2017).
# Columns and labels:
# [1] = cited from earlier work
# α4β2 nicotinic receptors = target: T1, α4β2 nicotinic receptors (Homo sapiens, UniProt P17787+P43681); experiment: Radioligand binding to α4β2 nicotinic receptors in SH-SYSY cells ([3H]cytosine)
# T1 construct: Cerep, Inc. (Poitiers, France), contract assay; host or cells: SH-SYSY (SH-SY5Y) cells
# T1 sequence (P43681 29-627 limits assumed): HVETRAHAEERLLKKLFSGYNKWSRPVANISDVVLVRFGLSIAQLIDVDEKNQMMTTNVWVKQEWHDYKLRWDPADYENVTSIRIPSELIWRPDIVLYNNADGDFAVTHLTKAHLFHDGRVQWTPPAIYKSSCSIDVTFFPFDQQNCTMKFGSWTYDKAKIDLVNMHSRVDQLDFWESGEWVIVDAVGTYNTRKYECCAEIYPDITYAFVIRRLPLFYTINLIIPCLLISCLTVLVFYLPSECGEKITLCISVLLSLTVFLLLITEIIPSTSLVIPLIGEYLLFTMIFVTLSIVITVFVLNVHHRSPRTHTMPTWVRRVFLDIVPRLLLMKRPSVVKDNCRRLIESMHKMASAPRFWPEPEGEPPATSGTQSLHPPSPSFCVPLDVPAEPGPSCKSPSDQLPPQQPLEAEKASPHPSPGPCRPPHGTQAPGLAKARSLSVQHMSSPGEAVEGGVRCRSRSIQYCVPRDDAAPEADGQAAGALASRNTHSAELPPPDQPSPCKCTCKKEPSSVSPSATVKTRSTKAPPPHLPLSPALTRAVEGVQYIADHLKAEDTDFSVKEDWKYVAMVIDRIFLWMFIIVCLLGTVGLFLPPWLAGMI
# T1 sequence (P17787 26-502): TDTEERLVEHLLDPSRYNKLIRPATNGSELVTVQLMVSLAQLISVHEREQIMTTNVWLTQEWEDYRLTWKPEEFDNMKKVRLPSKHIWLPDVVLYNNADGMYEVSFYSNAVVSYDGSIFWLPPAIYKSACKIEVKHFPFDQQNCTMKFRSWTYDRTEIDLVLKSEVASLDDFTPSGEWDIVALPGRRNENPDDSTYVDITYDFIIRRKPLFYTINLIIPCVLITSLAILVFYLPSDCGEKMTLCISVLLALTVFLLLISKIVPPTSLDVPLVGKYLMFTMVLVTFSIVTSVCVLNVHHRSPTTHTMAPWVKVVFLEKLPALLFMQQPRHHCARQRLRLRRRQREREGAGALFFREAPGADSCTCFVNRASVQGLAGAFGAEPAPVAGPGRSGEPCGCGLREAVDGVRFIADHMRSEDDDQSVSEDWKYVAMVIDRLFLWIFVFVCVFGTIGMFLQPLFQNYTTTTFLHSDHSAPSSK
# Method: (§1) To examine the possibility that a (+)-1-(3, 4-dichlorophenyl)-3-azabicyclo[3.1.0]hexane may have effects mediated via direct actions on nicotinic receptors, its affinity was determined for α7 and α4β2 nicotinic receptors in radioligand binding assays. The assessment was conducted by Cerep, Inc. (Poitiers, France). Inhibition of binding to α4β2 nicotinic receptors in SH-SYSY cells was determined using the radioligand [^3H]cytosine at 0.6 nM concentration according to the method of Gopalakrishnan et al. (1996). Incubation was for 120 minutes at 4° C. and non-specific binding was determined with 10 μM nicotine. Inhibition of binding to α7 nicotinic receptors in SH-SYSY cells was determined using [^125I]α-bungarotoxin (0.05 nM) according to the method of Sharples et al. (2000). Incubation was 120 minutes at 37° C. and non-specific binding was determined using α-bungarotoxin (1 μM). Specific binding of the radioligands was determined by scintillation spectrometry technology.
# α7 nicotinic receptors = target: T2, α7 nicotinic receptors (Homo sapiens, UniProt P36544); experiment: Radioligand binding to α7 nicotinic receptors in SH-SYSY cells ([125I]α-bungarotoxin)
# T2 construct: Cerep, Inc. (Poitiers, France), contract assay; host or cells: SH-SYSY (SH-SY5Y) cells
# T2 sequence (P36544 23-502): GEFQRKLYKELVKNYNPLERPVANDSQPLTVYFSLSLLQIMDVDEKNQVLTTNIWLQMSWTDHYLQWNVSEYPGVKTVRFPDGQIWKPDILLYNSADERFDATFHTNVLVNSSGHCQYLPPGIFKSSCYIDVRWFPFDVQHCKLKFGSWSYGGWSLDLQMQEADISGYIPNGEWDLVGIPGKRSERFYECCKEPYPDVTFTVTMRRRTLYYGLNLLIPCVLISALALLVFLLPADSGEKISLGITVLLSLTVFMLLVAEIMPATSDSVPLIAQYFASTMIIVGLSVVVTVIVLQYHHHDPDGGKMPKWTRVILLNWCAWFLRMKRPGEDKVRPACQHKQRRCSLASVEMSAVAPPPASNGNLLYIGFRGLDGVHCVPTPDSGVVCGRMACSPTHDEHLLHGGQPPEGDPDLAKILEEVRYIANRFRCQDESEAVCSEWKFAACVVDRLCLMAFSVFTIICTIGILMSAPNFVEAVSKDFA
# Method: as §1
# [2] = test system: alcohol-preferring (P) rats; experiment: Nicotine sensitization, open field locomotor activity in alcohol-preferring rats; format: in vivo, rat; conditions: for locomotor activity when administered alone: oral 2.5-40 mg/kg without nicotine, P rats
# Method: P and NP (alcohol-nonpreferring) rats were administered nicotine by subcutaneous injection of 0.4 mg/kg nicotine each day for 10 days. The rats were then immediately run for 90 minute locomotor sessions using an open-field activity monitoring cage (27×27×20.3 cm, Med Associates, Inc., St. Albans, Vt.). Activity counts represented by the number of infrared beam interruptions were recorded for each animal.
# To evaluate the capacity of oral (+)-1-(3, 4-dichlorophenyl)-3-azabicyclo[3.1.0]hexane to block nicotine-induced sensitization in P rats, cohorts of P rats (n=6-9/group) were sensitized to nicotine as described in Example I. The rats were then divided into sixteen groups and given either vehicle, nicotine alone, 2.5 mg/kg (+)-1-(3, 4-dichlorophenyl)-3-azabicyclo[3.1.0]hexane, 5 mg/kg (+)-1-(3, 4-dichlorophenyl)-3-azabicyclo[3.1.0]hexane, 10 mg/kg (+)-1-(3, 4-dichlorophenyl)-3-azabicyclo[3.1.0]hexane, 25 mg/kg (+)-1-(3, 4-dichlorophenyl)-3-azabicyclo[3.1.0]hexane, or 40 mg/kg (+)-1-(3, 4-dichlorophenyl)-3-azabicyclo[3.1.0]hexane. Thirty minutes after administration of (+)-1-(3, 4-dichlorophenyl)-3-azabicyclo[3.1.0]hexane, half of the rats were given 0.4 mg/kg nicotine or vehicle. The rats were then immediately run for 90 minute locomotor sessions using an open-field activity monitoring cage (27×27×20.3 cm, Med Associates, Inc., St. Albans, Vt.). Activity counts represent the number of infrared beam interruptions were recorded for each animal.
# [3] = test system: alcohol-preferring (P) rats; experiment: Nicotine potentiation of intracranial self-stimulation (ICSS) in alcohol-preferring rats; format: in vivo, rat
# Method: (§2) Rats were anesthetized with isoflurane and an electrode was implanted in the medial forebrain bundles as previously described (Eiler et al., 2005; 2007). Behavioral training and testing was conducted in standard operant chambers (Coulbourn Instruments, Allentown, Pa.) equipped with a removable lever enclosed in a sound attenuating cubicle as previously reported (Eiler et al., 2005; 2007). Four dependent variables were collected in the studies: (1) the frequency that corresponds with 50% of responding (EF50), (2) the minimum/lowest frequency capable of maintaining brain stimulation reward (BSR), (3) the maximum frequency producing the highest rate of lever pressing throughout the BSR session, and (4) the total number of lever presses produced during a 20 minute session.
# After surgical implantation, rats were trained on a continuous reinforcement (FR1) schedule, then decreased to a frequency of reinforcement after every six correct responses (FR6) until stabilization.
# Following the initial ICSS experiments, the effects of varied doses of nicotine were examined in the ICSS paradigm. Animals were prepared and trained as described above.
# as §2, with “The effect of (+)-1-(3, 4-dichlorophenyl)-3-azabicyclo[3.1.0]hexane on the nicotine facilitation of ICSS was examined in P rats. Rats” for “Rats”, “session” for “session,”
# After surgical implantation, rats were trained on a continuous reinforcement (FR1) schedule, then decreased to a frequency of reinforcement after every six correct responses (FR6) until stabilization. After training, the rats were sensitized with nicotine (0.4 mg/kg daily) using the Kelley 10-day sensitization model as described in Example I (rats were treated with either nicotine (0.4 mg/ml/kg) or saline once per day for 10 days in a test environment distinct from their home cages (Schroeder et al., 2001).
# After sensitization, three of the nicotine cohorts of P rats (n=8) were given (+)-1-(3, 4-dichlorophenyl)-3-azabicyclo[3.1.0]hexane (10, 20 or 40 μg) into the medial prefrontal cortex (mPC) prior to the daily administration of nicotine (0.4 mg/ml/kg).
# [4] = test system: alcohol-preferring (P) rats; experiment: Nicotine withdrawal effects in ICSS paradigm in alcohol-preferring rats; format: in vivo, rat
# Method: as §2, with “session” for “session,”
# After surgical implantation, rats were trained on a continuous reinforcement (FR1) schedule, and then decreased to a frequency of reinforcement after every six correct responses (FR6) until stabilization. After training, the rats were sensitized with nicotine (0.4 mg/kg daily) for 14 days. 12 hours after the last dose of nicotine, animals were run for a 20 min FR-6 ICSS sessions. ICSS sessions were run every 12 hours (12 hrs, 24 hrs, 36 hrs, 48 hrs, 60 hrs and 72 hrs) for 72 hours.
# as §2, with “The effect of (+)-1-(3, 4-dichlorophenyl)-3-azabicyclo[3.1.0]hexane on nicotine withdrawal and ICSS was examined in P rats. Rats” for “Rats”, “session” for “session,”
# After surgical implantation, rats were trained on a continuous reinforcement (FR1) schedule, and then decreased to a frequency of reinforcement after every six correct responses (FR6) until stabilization. After training, the rats were sensitized with nicotine (0.4 mg/kg daily) for 14 days. Rats were then given either PBS, 20 mg/kg of (+)-1-(3, 4-dichlorophenyl)-3-azabicyclo[3.1.0]hexane or 40 mg/kg of (+)-1-(3, 4-dichlorophenyl)-3-azabicyclo[3.1.0]hexane. After 48 hours, the animals were run for a 20 min FR-6 ICSS session.
# [5] = test system: alcohol-preferring (P) rats; experiment: Forced swim test during nicotine withdrawal in alcohol-preferring rats; format: in vivo, rat
# Method: The forced swim test (FST) is an animal model of depression in which nicotine withdrawal causes increased immobility (i.e. despair) in the rodents. The FST accordingly may be used as an animal model to evaluate negative affective states during nicotine withdrawal, which may emulate “depressive-like” behavior in human nicotine addicts.
# P rats were administered nicotine by subcutaneous injection of 0.4 mg/kg nicotine each day for 14 days and then deprived of nicotine. Lucki's modified FST (Cryan et al., 2002) was performed using immobility, climbing and swimming every twelve hours following the last dose of nicotine (12 hrs, 24 hrs, 36 hrs, 48 hrs, 60 hrs and 72 hrs) for 72 hours.
# [6] = read-out: % Inhibition of binding
# [7] = oral 20 and 40 mg/kg, 48 hours nicotine abstinence
# [8] = 0.2-0.8 mg/kg SQ, all 3 doses, sensitized P rats
# [9] = 12-72 hrs after last dose, 0.4 mg/kg daily for 14 days
# [10] = after 0.4 mg/kg sc daily for 14 days
smiles,measurement,setting,value
"COC[C@@H]1[C@@H](c2ccc(Cl)c(Cl)c2)C[C@@H]2CC[C@H]1N2 [GSK372475, reference compound]",noradrenergic side effects such as significantly elevated heart rate and increased systolic and diastolic blood pressure,[1]; in vivo,seen
"Clc1ccc([C@]23CNC[C@H]2C3)cc1Cl [amitifadine, (1R,5S)-(+)-1-(3,4-dichlorophenyl)-3-azabicyclo[3.1.0]hexane]",inhibition at 0.1 µM,α4β2 nicotinic receptors; concentration 100 nM,17%
same,inhibition at 1 µM,α4β2 nicotinic receptors; concentration 1000 nM,14%
same,inhibition at 10 µM,α4β2 nicotinic receptors; concentration 10000 nM,13%
same,effect on binding of radioligand,"α4β2 nicotinic receptors; concentrations from 100 to 10,000 nM",no appreciable effect
same,inhibition at 0.1 µM,α7 nicotinic receptors; [6],13%
same,inhibition at 1 µM,α7 nicotinic receptors; [6],6%
same,inhibition at 10 µM,α7 nicotinic receptors; [6],-9%
same,effect on binding of radioligand,"α7 nicotinic receptors; α7, concentrations from 100 to 10,000 nM",no appreciable effect
same,nicotine-induced increases in horizontal activity,"[2]; oral 2.5, 5, 10, 25, 40 mg/kg, 30 min before 0.4 mg/kg nicotine, sensitized P rats, 90 minute open field session",significantly reduced
same,locomotor activity when administered alone,[2]; 90 minute open field session,did not significantly alter
same,locomotor activity when administered alone,"[2]; 90 minute open field session, listed as (+)-1-(3, 4-dichlorophenyl)-3-azabicyclo[3.1.0]hexane",did not alter
same,nicotine elevation in total responding,"[3]; 10, 20 or 40 μg into mPC",attenuation
same,nicotine reduction of EF50,"[3]; 10, 20 or 40 μg into mPC",attenuation
same,nicotine reduction of minimum frequency,"[3]; 10, 20 or 40 μg into mPC",attenuation
same,nicotine facilitation on ICSS,"[3]; 10, 20 or 40 μg into medial prefrontal cortex immediately prior to nicotine 0.4 mg/ml/kg, P rats",significantly reduced
same,reduction in responding produced by the 48 hour withdrawal period,[4]; oral 20 and 40 mg/kg,elevated
same,"nicotine elevation of the reward threshold, EF50",[4]; [7],profound reduction
same,"nicotine elevation of the reward threshold, minimum frequency",[4]; [7],profound reduction
same,nicotine-induced increases in immobility,[5]; oral 12.5 or 25 mg/kg administered at 48 hours of nicotine abstinence,significantly attenuated
same,tolerability,"[1]; U.S. Ser. No. 13/310,694, Graff et al. 2009",well tolerated
same,"dopaminergic side effects such as nausea, vomiting, and hypomania",[1]; in vivo,did not lead to
same,noradrenergic side effects such as significantly elevated heart rate and increased systolic and diastolic blood pressure,[1]; in vivo,did not lead to
CN1CCCC1c1cccnc1 (stereo not shown) [nicotine],sensitization to nicotine (open field activity),"[2]; 0.4 mg/kg sc daily for 10 days, P versus NP rats",occurs in P rats only
same,sensitivity to the reward potentiating effects of nicotine in ICSS following sensitization,"[3]; 0.4 mg/kg sc on day 11, P, but not NP, rats",enhanced sensitivity
same,ICSS responding versus saline,"[3]; 0.2-0.8 mg/kg SQ on day 11, sensitized P rats",higher responding than did saline
same,EF50,[3]; [8],reduction
same,minimum frequency,[3]; [8],reduction
same,EF50 during withdrawal,[4]; [9],time dependent increase
same,minimum frequency capable of maintaining BSR during withdrawal,[4]; [9],time dependent increase
same,total ICSS responding during withdrawal,[4]; [9],marked reduction
same,climbing during nicotine abstinence,[5]; [10],Reduction
same,swimming during nicotine abstinence,[5]; [10],Reduction
same,immobility during nicotine abstinence,[5]; at 48 and 72 hours after 0.4 mg/kg sc daily for 14 days,significant elevation
